Patent US12551570B2, “Compounds comprising cleavable linker and uses thereof” (IntoCell, Inc., priority 2019, dated 2026)

Assays:
[1] = Plasma stability test, human plasma; assay type: in vitro ADME; conditions: 37° C., 300 μM
Procedure: (§1) Compound A-2 or A-3 and MPS used as an internal standard were dissolved in DMSO to achieve a concentration of 60 mM. Then, each of human plasma (Biochemed 752PR-SC-PMG), mouse plasma (Biochemed 029-APSC-MP), rat plasma (Biochemed 031-APSC-MP), and beagle dog plasma (Biochemed 013-APSC-MP) were mixed with the solution of the compound and MPS to achieve a final concentration of 300 μM (final 0.5% DMSO). The resulting plasma mixtures were incubated at 37° C. Aliquots were taken before the reaction and after 1 day, 2 days, 4 days, and 7 days. Each aliquot was 300 μL. To complete the reaction, two-fold volume of acetonitrile was added, followed by brief vortexing and centrifugation for plasma protein precipitation. Each supernatant obtained after centrifugation was collected and analyzed by HPLC. Compounds A-2 and A-3 were detected and quantitated in the mouse and human plasma for up to 7 days (>95%). […] The results of the plasma stability studies are shown in Tables 3 and 4 and FIGS. 6 and 7.

[2] = Plasma stability test, mouse plasma; assay type: in vitro ADME; conditions: 37° C., 300 μM
Procedure: as §1

Row | Remaining Substrate, %, Human Plasma ([1]; 0 days) [%] | Remaining Substrate, %, Human Plasma ([1]; 1 day) [%] | Remaining Substrate, %, Human Plasma ([1]; 2 days) [%] | Remaining Substrate, %, Human Plasma ([1]; 7 days) [%] | Remaining Substrate, %, Mouse Plasma ([2]; 0 days) [%] | Remaining Substrate, %, Mouse Plasma ([2]; 1 day) [%] | Remaining Substrate, %, Mouse Plasma ([2]; 2 days) [%] | Remaining Substrate, %, Mouse Plasma ([2]; 7 days) [%] | Remaining Substrate, %, Human Plasma ([1]; 4 days) [%] | Remaining Substrate, %, Mouse Plasma ([2]; 4 days) [%] | Structure (SMILES)
1 | 100 | 97 | 98 | 99 | 100 | 94 | 90 | 92 |  |  | C[N+]1(Cc2ccc(OS(=O)(=NCCOCCOCCOCCN=[N+]=[N-])Oc3ccccc3O[C@@H]3O[C@H](CO)[C@H](O)[C@H](O)[C@H]3O)cc2)CCCC[C@@H]1C(=O)Nc1ccccc1 (stereo partly drawn) [Compound A-3]
2 | 100 | 100 | 104 | 101 | 100 | 102 | 100 | 95 | 99 | 97 | CC(C)(C)OC(=O)N[C@@H](Cc1ccc(OS(=O)(=NCCOCCOCCOCCN=[N+]=[N-])Oc2ccccc2O[C@@H]2O[C@H](CO)[C@H](O)[C@H](O)[C@H]2O)cc1)C(=O)O (stereo partly drawn) [Compound A-2]
